Experimental data as given in PubChem BioAssay (NCI).
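Briefly, cells in 96-well plates were exposed to five compound concentrations for 48 h, and endpoints were estimated by linear interpolation. Abbreviation: GI50, concentration required for 50% inhibition of growth. At the TGI there is no net growth.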

How the values were obtained:
Assay in all cases: NCI anticancer screen, dose series, 48 h
[1] = system: TK-10 renal
[2] = system: HCT-116 colon
[3] = system: SF-539 CNS
[4] = system: K-562 leukemia
[5] = system: OVCAR-5 ovarian
[6] = system: SK-MEL-2 melanoma
[7] = system: NCI-H522 lung
[8] = system: SK-MEL-5 melanoma
[9] = system: SK-OV-3 ovarian
[10] = system: U251 CNS
[11] = system: DU-145 prostate
[12] = system: NCI/ADR-RES ovarian
[13] = system: UACC-62 melanoma
[14] = system: NCI-H460 lung
[15] = system: HCT-15 colon
[16] = system: NCI-H226 lung
[17] = system: OVCAR-4 ovarian
[18] = system: RXF 393 renal
[19] = system: OVCAR-3 ovarian
[20] = system: MCF7 breast
[21] = system: UO-31 renal
[22] = system: SF-268 CNS
[23] = system: HCC-2998 colon
[24] = system: MALME-3M melanoma
[25] = system: HT29 colon
[26] = system: SK-MEL-28 melanoma
[27] = system: SR leukemia
[28] = system: T-47D breast
[29] = system: SNB-75 CNS
[30] = system: HL-60(TB) leukemia
[31] = system: ACHN renal
[32] = system: SNB-19 CNS
[33] = system: MDA-MB-231 breast
[34] = system: A549 NSCLC
[35] = system: HOP-92 NSCLC
[36] = system: M14 melanoma
[37] = system: PC-3 prostate
[38] = system: EKVX NSCLC
[39] = system: A498 renal
[40] = system: HOP-62 NSCLC
[41] = system: MDA-MB-435
[42] = system: HS 578T breast
[43] = system: BT-549 breast
[44] = system: SF-295 CNS
[45] = system: MOLT-4 leukemia
[46] = system: KM12 colon
[47] = system: LOX IMVI melanoma
[48] = system: 786-0 renal
[49] = system: OVCAR-8 ovarian
[50] = system: COLO 205 colon
[51] = system: SW-620 colon
[52] = system: CAKI-1 renal
[53] = system: NCI-H23 lung
[54] = system: UACC-257 melanoma
[55] = system: SN12C renal
[56] = system: CCRF-CEM leukemia
[57] = system: RPMI-8226 leukemia
[58] = system: IGROV1 ovarian
[59] = system: MDA-N

With `Cc1ccc(NC(=O)c2ccnc(C(F)(F)F)c2)cc1-c1cc(OCCO)nc(N2CCOCC2)c1` the GI50 [1] was 6.66 µM, the TGI [1] was greater than 100 µM and the GI50 [2] was 0.7 µM. It also gave a TGI [2] greater than 100 µM, a GI50 [3] of 2.55 µM and a TGI [3] of 11.8 µM. For the same compound, the GI50 [4] was 1.86 µM, the TGI [4] was 41.6 µM and the GI50 [5] was 1.09 µM. It also gave a TGI [5] of 28.3 µM, a GI50 [6] of 0.192 µM and a TGI [6] of 3.44 µM. The GI50 [7] was 1.55 µM, the TGI [7] was 17.2 µM and the GI50 [8] was 1.5 µM. The TGI [8] was 4.71 µM, the GI50 [9] was 6.39 µM and the TGI [9] was greater than 100 µM. For the same compound, the GI50 [10] was 4.7 µM, the TGI [10] was 28.8 µM and the GI50 [11] was 4.09 µM. It also gave a TGI [11] of 61.2 µM, a GI50 [12] of 2.63 µM and a TGI [12] of 11.5 µM. For the same compound, the GI50 [13] was 0.315 µM, the TGI [13] was 4.54 µM and the GI50 [14] was 2.81 µM. For the same compound, the TGI [14] was 13.5 µM, the GI50 [15] was 2.24 µM and the TGI [15] was 19.4 µM. For the same compound, the GI50 [16] was 2.81 µM, the TGI [16] was 34.6 µM and the GI50 [17] was 3.95 µM. For the same compound, the TGI [17] was 21.5 µM, the GI50 [18] was 1.94 µM and the TGI [18] was 10.4 µM. The GI50 [19] was 2.62 µM, the TGI [19] was 12.5 µM and the GI50 [20] was 2.28 µM. The TGI [20] was 17.8 µM, the GI50 [21] was 0.495 µM and the TGI [21] was 13.1 µM. The GI50 [22] was 4.08 µM, the TGI [22] was 23.7 µM and the GI50 [23] was 0.464 µM. It also gave a TGI [23] of 10 µM, a GI50 [24] of 0.108 µM and a TGI [24] of 0.66 µM. It also gave a GI50 [25] of 0.413 µM, a TGI [25] of 14.8 µM and a GI50 [26] of 0.377 µM. The TGI [26] was 11.3 µM, the GI50 [27] was 0.613 µM and the TGI [27] was greater than 100 µM. It also gave a GI50 [28] of 3.31 µM, a TGI [28] greater than 100 µM and a GI50 [29] of 1.46 µM. It also gave a TGI [29] of 7.29 µM, a GI50 [30] of 1.05 µM and a TGI [30] of 6.51 µM. It also gave a GI50 [31] of 2.99 µM, a TGI [31] of 80.1 µM and a GI50 [32] of 3.64 µM. It also gave a TGI [32] of 19.2 µM, a GI50 [33] of 0.688 µM and a TGI [33] of 17.5 µM. The GI50 [34] was 3.21 µM, the TGI [34] was 28.9 µM and the GI50 [35] was 0.196 µM. For the same compound, the TGI [35] was 4.78 µM, the GI50 [36] was 0.63 µM and the TGI [36] was 5.25 µM. The GI50 [37] was 3.24 µM, the TGI [37] was greater than 100 µM and the GI50 [38] was 2.44 µM. It also gave a TGI [38] of 29.5 µM, a GI50 [39] of 1.06 µM and a TGI [39] of 3.74 µM. It also gave a GI50 [40] of 1.28 µM, a TGI [40] of 34.5 µM and a GI50 [41] of 0.391 µM. For the same compound, the TGI [41] was 1.81 µM, the GI50 [42] was 2.59 µM and the TGI [42] was 23.7 µM. For the same compound, the GI50 [43] was 5.87 µM, the TGI [43] was 22.9 µM and the GI50 [44] was 3.57 µM. For the same compound, the TGI [44] was 17.6 µM, the GI50 [45] was 3.5 µM and the TGI [45] was greater than 100 µM. It also gave a GI50 [46] of 2.28 µM, a TGI [46] of 22.1 µM and a GI50 [47] of 0.147 µM. The TGI [47] was 4.26 µM, the GI50 [48] was 6.29 µM and the TGI [48] was 38.2 µM. For the same compound, the GI50 [49] was 4.08 µM, the TGI [49] was greater than 100 µM and the GI50 [50] was 0.445 µM. For the same compound, the TGI [50] was 11.8 µM, the GI50 [51] was 1.55 µM and the TGI [51] was 63.8 µM. The GI50 [52] was 1.62 µM, the TGI [52] was 38.7 µM and the GI50 [53] was 0.916 µM. It also gave a TGI [53] of 12.5 µM, a GI50 [54] of 0.6 µM and a TGI [54] of 12.4 µM. It also gave a GI50 [55] of 3.31 µM, a TGI [55] of 28.6 µM and a GI50 [56] of 3.33 µM. It also gave a TGI [56] greater than 100 µM, a GI50 [57] of 2.7 µM and a TGI [57] greater than 100 µM. The GI50 [58] was 1.61 µM and the TGI [58] was 40 µM.

For `Cc1c(CCN=P(c2ccccc2)(c2ccccc2)c2ccccc2)c(=O)n2c([nH]c3ccccc32)c1C#N`, the TGI [1] was greater than 10 µM, the TGI [4] was greater than 10 µM and the TGI [8] was greater than 10 µM. The TGI [9] was greater than 10 µM, the TGI [11] was greater than 10 µM and the TGI [13] was greater than 10 µM. The TGI [15] was greater than 10 µM, the TGI [18] was greater than 10 µM and the TGI [20] was greater than 10 µM. For the same compound, the TGI [22] was greater than 10 µM, the TGI [23] was greater than 10 µM and the TGI [24] was greater than 10 µM. For the same compound, the TGI [25] was greater than 10 µM, the TGI [26] was greater than 10 µM and the TGI [27] was greater than 10 µM. For the same compound, the TGI [28] was greater than 10 µM, the TGI [29] was greater than 10 µM and the TGI [30] was greater than 10 µM. The TGI [33] was greater than 10 µM, the TGI [34] was greater than 10 µM and the TGI [36] was greater than 10 µM. For the same compound, the TGI [37] was greater than 10 µM, the TGI [38] was greater than 10 µM and the TGI [40] was greater than 10 µM. It also gave a TGI [44] greater than 10 µM, a TGI [45] greater than 10 µM and a TGI [46] greater than 10 µM. For the same compound, the TGI [47] was greater than 10 µM, the TGI [48] was greater than 10 µM and the TGI [49] was greater than 10 µM. For the same compound, the TGI [50] was greater than 10 µM, the TGI [51] was greater than 10 µM and the TGI [52] was greater than 10 µM. It also gave a TGI [53] greater than 10 µM, a TGI [54] greater than 10 µM and a TGI [59] greater than 10 µM. It also gave a TGI [55] greater than 10 µM, a TGI [56] greater than 10 µM and a TGI [57] greater than 10 µM. The TGI [58] was greater than 10 µM.
